Experimental data published in patent publication US20240382487A1, “NOVEL COPI/ARF1-LIPOLYSIS PATHWAY INHIBITOR AND COMPOUND FOR ERADICATING CANCER STEM CELLS AND INDUCING DAMP-MEDIATED ANTI-TUMOR IMMUNE RESPONSE” (FUDAN UNIVERSITY, priority 2020, published 2024).
Read-outs that look alike come from different tables or passages of the source.

How the values were obtained:
[1] = tested on: B16-F10 melanoma; assay: Lung metastasis of B16-F10 melanoma after tail vein injection; assay type: in vivo, C57B/6 mice; details: B16-F10 cells treated with 10 μM Du 102, tail vein injection; lungs removed 15 days after injection
Method: B16-f10 tumor cells (treated with DMSO or 10 μM Du 102 treatment) was transferred intravenously via tail vein injection. Lungs were removed 15 days after injection and fixed in fekete's solution overnight. Three investigators in a blinded manner statistically available (Table 17).

[2] = tested on: B16-F10 melanoma; assay: Drug-treated B16-F10 cells in athymic nude mice; assay type: in vivo; design: unit not given here; details: cells treated with 10 μM Du 102
Method: (§1) The immunogenicity of the reagents can be tested in mouse vaccination models (Obeid et al., 2007; Sagiv barfi et al., 2018). One flank of the mouse was injected with drug treated tumor cells, followed one week later by a second injection of syngeneic tumor cells. We tested the vaccine efficacy in CT-26 colon cancer, B16-F10 melanoma, and 4T1 breast cancer treated with DMSO or du102.
(§2) Cells will be treated with 10 μM Du 102 or DMSO treated CT26, 4T1 and B16-F10 tumor cells (5×10^5\1×10^5 and 5×10^5, respectively) were subcutaneously inoculated into 6-week-old female mice. After 7 days, equal amounts of corresponding tumor cells were seeded to the right side. Tumor cell lines were mixed with Matrigel (GIBCO, cat s̆ 354234) or resuspended in PBS and injected subcutaneously or intradermally.

[3] = tested on: 4T1 breast carcinoma; assay: Vaccination model, drug-treated 4T1 cells in BALB/c mice; assay type: in vivo; design: unit not given here; details: 4T1, BALB/c mice; for tumor size, left side with drug treatment: cells treated with 10 μM Du 102
[4] = tested on: mice; assay: Toxicity in mice, oral gavage; assay type: in vivo; details: mouse, in vivo, po
[5] = tested on: IL-1β; assay: IL-1β induction, B16-F10 melanoma model; assay type: cell-based; details: B16-F10 melanoma model in C57B/6 mice
Text: Example 7. Dulo2 Treatment Induces IL-1 in B16-F10 Melanoma of C57B/6 Mice. (Table 12)

[6] = tested on: Drosophila stem cell tumors; assay: Drosophila screen (stem cell / intestinal tumors); assay type: in vivo
Text: (§4) We tested 10 reported Arf1 inhibitors (Bill et al., 2011; Boal et al., 2010; Feng et al., 2004; Newton et al., 2006; Ohashi et al., 2012; Sáenz et al., 2009; Sorieul et al., 2011; Viaud et al., 2007), including brefeldin A (BFA), Golgicide A (GCA), LM11, Secin16, Secin H3, Secin B7, Exo1, Exo2, LG8, and LG18, on Drosophila stem cell tumors and normal human bone marrow hematopoietic stem cells (HSCs).

[7] = tested on: MHC expression, CD4 and CD8 T cell infiltration; assay: MHC expression and T-cell infiltration in MYC-ON mice; assay type: in vivo
Text: Du 102 treatment increases MHC expression. CD4 and CD8 T cell infiltration as quantified by Q-PCR in myc-on mice (Table 16).
MHC-1 or MHC-II positive infiltrating CD4+ and CD8+ T-cells measured by immunohistochemical staining of representative section.

[8] = tested on: lung cancer cells H460; assay: In vitro cell line screening, H460; assay type: cell-based
Text: (§3) In different tumor cytotoxicity experiments in vitro (FIG. 2-FIG. 7), including colorectal cancer cell lines HT29 and LoVo cells, liver cancer cell Huh7, lung cancer cells H460 and A549, the arf1 inhibitor could all inhibit tumor cell growth (FIG. 2-FIG. 6), and there was a dose-dependent manner (FIG. 7).

[9] = tested on: normal human bone marrow hematopoietic stem cells (HSCs)
Text: as §4

[10] = tested on: 4T1 breast carcinoma; assay: Drug-treated 4T1 cells in athymic nude mice; assay type: in vivo; design: unit not given here; details: cells treated with 10 μM Du 102
Method: as §1, §2

[11] = tested on: colorectal cancer cell line LoVo; assay: In vitro cell line screening, LoVo; assay type: cell-based
Text: as §3

Substance: 1H-indolo-5-carbaldehyde 5,6,7,8,9,10-hexahydrocycloocta[4,5]thieno[2,3-d]pyrimidin-4-ylhydrazone [Du 102]
- lung metastases (surface tumor number) [1]: 5
- B16-F10 melanoma tumor in Athymic mice ([2]; Day 0): 0
- B16-F10 melanoma tumor in Athymic mice ([2]; Day 5): 7.3
- B16-F10 melanoma tumor in Athymic mice ([2]; Day 10): 51.8
- B16-F10 melanoma tumor in Athymic mice ([2]; Day 15): 202.7
- B16-F10 melanoma tumor in Athymic mice ([2]; Day 20): 355.9
- B16-F10 melanoma tumor in Athymic mice ([2]; Day 25): 853.4
- tumors on right side after vaccination on left side ([3]; Day 0): 0
- tumor size, left side with drug treatment ([3]; Day 0): 0
- tumors on right side after vaccination on left side ([3]; Day 5): 0
- tumor size, left side with drug treatment ([3]; Day 5): 0
- tumors on right side after vaccination on left side ([3]; Day 10): 0
- tumor size, left side with drug treatment ([3]; Day 10): 2.3
- tumors on right side after vaccination on left side ([3]; Day 15): 0
- tumor size, left side with drug treatment ([3]; Day 15): 18.4
- tumors on right side after vaccination on left side ([3]; Day 20): 3.2
- tumor size, left side with drug treatment ([3]; Day 20): 63.5
- tumors on right side after vaccination on left side ([3]; Day 25): 7.9
- tumor size, left side with drug treatment ([3]; Day 25): 102.4
- tumors on right side after vaccination on left side ([3]; Day 30): 16.4
- tumor size, left side with drug treatment ([3]; Day 30): 173.6
- toxic effects [4]: no toxic effects were observed
- IL-1β [5]: 952
- in vivo tumor suppressive effects ([6]; Drosophila screen, FIG. 8): good in vivo tumor suppressive effects
- killing Drosophila stem cell tumors ([6]; in vivo): effective
- MHC-1 ([7]; DMSO 0.6): 51.7
- MHC-II ([7]; DMSO 0.7): 43.6
- CD4 ([7]; DMSO 1.0): 13.2
- CD8 ([7]; DMSO 2.0): 13.5
- tumor suppressive effect [8]: potency tumor suppressive effect
- tumor suppressive effect ([8]; listed as Dul02): effective tumor suppressive effects
- toxicity (killing normal HSCs) [9]: relatively low toxicity
- 4T1 breast carcinoma tumor in Athymic mice ([10]; Day 0): 0
- 4T1 breast carcinoma tumor in Athymic mice ([10]; Day 5): 21.7
- 4T1 breast carcinoma tumor in Athymic mice ([10]; Day 10): 41.3
- 4T1 breast carcinoma tumor in Athymic mice ([10]; Day 15): 163.3
- 4T1 breast carcinoma tumor in Athymic mice ([10]; Day 20): 385.4
- 4T1 breast carcinoma tumor in Athymic mice ([10]; Day 25): 793.2
- tumor suppressive effect [11]: some tumor suppressive effect
- tumor suppressive effect ([11]; listed as Dul02): effective tumor suppressive effects
